# Measurements: PubChem BioAssay (NCI)
#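 96-well plates; 48 h exposure; 5 concentrations. Endpoints by linear interpolation between flanking doses. Not reached: highest tested concentration assigned. The concentration for full growth arrest is given as TGI.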
# Key:
# Experiment in all cases: DTP human tumour cell line panel, 48 h
# 786-0 renal = test system: 786-0 renal
# A498 renal = test system: A498 renal
# A549 NSCLC = test system: A549 NSCLC
# ACHN renal = test system: ACHN renal
# BT-549 breast = test system: BT-549 breast
# CAKI-1 renal = test system: CAKI-1 renal
# CCRF-CEM leukemia = test system: CCRF-CEM leukemia
# COLO 205 colon = test system: COLO 205 colon
# DU-145 prostate = test system: DU-145 prostate
# EKVX NSCLC = test system: EKVX NSCLC
# HCT-116 colon = test system: HCT-116 colon
# HCT-15 colon = test system: HCT-15 colon
# HL-60(TB) leukemia = test system: HL-60(TB) leukemia
# HOP-62 NSCLC = test system: HOP-62 NSCLC
# HS 578T breast = test system: HS 578T breast
# HT29 colon = test system: HT29 colon
# IGROV1 ovarian = test system: IGROV1 ovarian
# K-562 leukemia = test system: K-562 leukemia
# KM12 colon = test system: KM12 colon
# LOX IMVI melanoma = test system: LOX IMVI melanoma
# M14 melanoma = test system: M14 melanoma
# MCF7 breast = test system: MCF7 breast
# MDA-MB-231 breast = test system: MDA-MB-231 breast
# MDA-MB-435 = test system: MDA-MB-435
# MDA-N = test system: MDA-N
# MOLT-4 leukemia = test system: MOLT-4 leukemia
# NCI-H226 lung = test system: NCI-H226 lung
# NCI-H23 lung = test system: NCI-H23 lung
# NCI-H522 lung = test system: NCI-H522 lung
# NCI/ADR-RES ovarian = test system: NCI/ADR-RES ovarian
# OVCAR-3 ovarian = test system: OVCAR-3 ovarian
# OVCAR-4 ovarian = test system: OVCAR-4 ovarian
# OVCAR-5 ovarian = test system: OVCAR-5 ovarian
# OVCAR-8 ovarian = test system: OVCAR-8 ovarian
# PC-3 prostate = test system: PC-3 prostate
# RPMI-8226 leukemia = test system: RPMI-8226 leukemia
# SF-268 CNS = test system: SF-268 CNS
# SF-295 CNS = test system: SF-295 CNS
# SF-539 CNS = test system: SF-539 CNS
# SK-MEL-2 melanoma = test system: SK-MEL-2 melanoma
# SK-MEL-28 melanoma = test system: SK-MEL-28 melanoma
# SK-MEL-5 melanoma = test system: SK-MEL-5 melanoma
# SK-OV-3 ovarian = test system: SK-OV-3 ovarian
# SN12C renal = test system: SN12C renal
# SNB-19 CNS = test system: SNB-19 CNS
# SNB-75 CNS = test system: SNB-75 CNS
# SR leukemia = test system: SR leukemia
# SW-620 colon = test system: SW-620 colon
# T-47D breast = test system: T-47D breast
# TK-10 renal = test system: TK-10 renal
# U251 CNS = test system: U251 CNS
# UACC-257 melanoma = test system: UACC-257 melanoma
# UACC-62 melanoma = test system: UACC-62 melanoma
# UO-31 renal = test system: UO-31 renal
# HCC-2998 colon = test system: HCC-2998 colon
# MALME-3M melanoma = test system: MALME-3M melanoma
# RXF 393 renal = test system: RXF 393 renal
# HOP-92 NSCLC = test system: HOP-92 NSCLC
# NCI-H460 lung = test system: NCI-H460 lung
structure (smiles),measurement,setting,value
CCNCC(O)COc1ccc2c(c1)[n+]([O-])nc(N)[n+]2[O-] (centres undefined),TGI,786-0 renal,> 100 µM
same,TGI,A498 renal,> 100 µM
same,TGI,A549 NSCLC,> 100 µM
same,TGI,ACHN renal,> 100 µM
same,TGI,BT-549 breast,> 100 µM
same,TGI,CAKI-1 renal,> 100 µM
same,TGI,CCRF-CEM leukemia,> 100 µM
same,TGI,COLO 205 colon,> 100 µM
same,TGI,DU-145 prostate,> 100 µM
same,TGI,EKVX NSCLC,> 100 µM
same,TGI,HCT-116 colon,> 100 µM
same,TGI,HCT-15 colon,> 100 µM
same,TGI,HL-60(TB) leukemia,> 100 µM
same,TGI,HOP-62 NSCLC,> 100 µM
same,TGI,HS 578T breast,> 100 µM
same,TGI,HT29 colon,> 100 µM
same,TGI,IGROV1 ovarian,> 100 µM
same,TGI,K-562 leukemia,> 100 µM
same,TGI,KM12 colon,> 100 µM
same,TGI,LOX IMVI melanoma,27.3 µM
same,TGI,M14 melanoma,> 100 µM
same,TGI,MCF7 breast,> 100 µM
same,TGI,MDA-MB-231 breast,> 100 µM
same,TGI,MDA-MB-435,> 100 µM
same,TGI,MDA-N,> 100 µM
same,TGI,MOLT-4 leukemia,56 µM
same,TGI,NCI-H226 lung,> 100 µM
same,TGI,NCI-H23 lung,> 100 µM
same,TGI,NCI-H522 lung,43.6 µM
same,TGI,NCI/ADR-RES ovarian,> 100 µM
same,TGI,OVCAR-3 ovarian,> 100 µM
same,TGI,OVCAR-4 ovarian,> 100 µM
same,TGI,OVCAR-5 ovarian,> 100 µM
same,TGI,OVCAR-8 ovarian,> 100 µM
same,TGI,PC-3 prostate,> 100 µM
same,TGI,RPMI-8226 leukemia,> 100 µM
same,TGI,SF-268 CNS,> 100 µM
same,TGI,SF-295 CNS,> 100 µM
same,TGI,SF-539 CNS,> 100 µM
same,TGI,SK-MEL-2 melanoma,> 100 µM
same,TGI,SK-MEL-28 melanoma,> 100 µM
same,TGI,SK-MEL-5 melanoma,> 100 µM
same,TGI,SK-OV-3 ovarian,82.1 µM
same,TGI,SN12C renal,> 100 µM
same,TGI,SNB-19 CNS,> 100 µM
same,TGI,SNB-75 CNS,> 100 µM
same,TGI,SR leukemia,> 100 µM
same,TGI,SW-620 colon,> 100 µM
same,TGI,T-47D breast,> 100 µM
same,TGI,TK-10 renal,> 100 µM
same,TGI,U251 CNS,> 100 µM
same,TGI,UACC-257 melanoma,> 100 µM
same,TGI,UACC-62 melanoma,69.8 µM
same,TGI,UO-31 renal,> 100 µM
COc1c2c(cc3occ(-c4ccc(CC=C(C)C)cc4)c(=O)c13)OC(C)(C)C=C2,TGI,786-0 renal,> 100 µM
same,TGI,A549 NSCLC,> 100 µM
same,TGI,ACHN renal,> 100 µM
same,TGI,BT-549 breast,> 100 µM
same,TGI,CAKI-1 renal,> 100 µM
same,TGI,CCRF-CEM leukemia,> 100 µM
same,TGI,COLO 205 colon,> 100 µM
same,TGI,DU-145 prostate,> 100 µM
same,TGI,EKVX NSCLC,> 100 µM
same,TGI,HCC-2998 colon,> 100 µM
same,TGI,HCT-116 colon,> 100 µM
same,TGI,HCT-15 colon,> 100 µM
same,TGI,HL-60(TB) leukemia,46.4 µM
same,TGI,HOP-62 NSCLC,> 100 µM
same,TGI,HS 578T breast,> 100 µM
same,TGI,HT29 colon,> 100 µM
same,TGI,IGROV1 ovarian,> 100 µM
same,TGI,K-562 leukemia,> 100 µM
same,TGI,KM12 colon,> 100 µM
same,TGI,LOX IMVI melanoma,> 100 µM
same,TGI,M14 melanoma,> 100 µM
same,TGI,MALME-3M melanoma,> 100 µM
same,TGI,MCF7 breast,> 100 µM
same,TGI,MDA-MB-231 breast,> 100 µM
same,TGI,MDA-MB-435,> 100 µM
same,TGI,MDA-N,> 100 µM
same,TGI,MOLT-4 leukemia,52.1 µM
same,TGI,NCI-H226 lung,> 100 µM
same,TGI,NCI-H23 lung,> 100 µM
same,TGI,NCI-H522 lung,> 100 µM
same,TGI,NCI/ADR-RES ovarian,> 100 µM
same,TGI,OVCAR-3 ovarian,> 100 µM
same,TGI,OVCAR-5 ovarian,> 100 µM
same,TGI,OVCAR-8 ovarian,> 100 µM
same,TGI,PC-3 prostate,> 100 µM
same,TGI,RPMI-8226 leukemia,50.3 µM
same,TGI,RXF 393 renal,> 100 µM
same,TGI,SF-268 CNS,> 100 µM
same,TGI,SF-295 CNS,> 100 µM
same,TGI,SK-MEL-2 melanoma,62.7 µM
same,TGI,SK-MEL-28 melanoma,> 100 µM
same,TGI,SK-MEL-5 melanoma,48.9 µM
same,TGI,SK-OV-3 ovarian,> 100 µM
same,TGI,SN12C renal,> 100 µM
same,TGI,SNB-19 CNS,> 100 µM
same,TGI,SNB-75 CNS,> 100 µM
same,TGI,SR leukemia,> 100 µM
same,TGI,SW-620 colon,> 100 µM
same,TGI,T-47D breast,> 100 µM
same,TGI,TK-10 renal,> 100 µM
same,TGI,U251 CNS,> 100 µM
same,TGI,UACC-257 melanoma,> 100 µM
same,TGI,UACC-62 melanoma,> 100 µM
same,TGI,UO-31 renal,> 100 µM
CC(=O)OC1CC(OC2C(O)CC(OC3C(O)CC(OC4CCC5(C)C(CCC6C5CCC5(C)C(C7=CC(=O)OC7)C(O)CC65O)C4)OC3C)OC2C)OC(C)C1OC1OC(CO)C(O)C(O)C1O (centres undefined),TGI,786-0 renal,0.943 µM
same,TGI,A498 renal,2.13 µM
same,TGI,A549 NSCLC,0.244 µM
same,TGI,ACHN renal,0.942 µM
same,TGI,BT-549 breast,1.26 µM
same,TGI,CAKI-1 renal,0.461 µM
same,TGI,CCRF-CEM leukemia,> 100 µM
same,TGI,COLO 205 colon,2.13 µM
same,TGI,DU-145 prostate,0.684 µM
same,TGI,EKVX NSCLC,0.803 µM
same,TGI,HCC-2998 colon,4.09 µM
same,TGI,HCT-116 colon,0.91 µM
same,TGI,HCT-15 colon,1.16 µM
same,TGI,HL-60(TB) leukemia,0.577 µM
same,TGI,HOP-62 NSCLC,0.483 µM
same,TGI,HOP-92 NSCLC,3.17 µM
same,TGI,HS 578T breast,> 100 µM
same,TGI,HT29 colon,1.76 µM
same,TGI,IGROV1 ovarian,3.58 µM
same,TGI,K-562 leukemia,> 100 µM
same,TGI,KM12 colon,1.94 µM
same,TGI,LOX IMVI melanoma,1.14 µM
same,TGI,M14 melanoma,2.31 µM
same,TGI,MALME-3M melanoma,1.85 µM
same,TGI,MCF7 breast,15.8 µM
same,TGI,MDA-MB-231 breast,6.42 µM
same,TGI,MDA-MB-435,2.08 µM
same,TGI,MDA-N,1.77 µM
same,TGI,MOLT-4 leukemia,> 100 µM
same,TGI,NCI-H226 lung,2.66 µM
same,TGI,NCI-H23 lung,0.424 µM
same,TGI,NCI-H460 lung,0.491 µM
same,TGI,NCI-H522 lung,1.2 µM
same,TGI,NCI/ADR-RES ovarian,0.755 µM
same,TGI,OVCAR-3 ovarian,1.24 µM
same,TGI,OVCAR-5 ovarian,1.72 µM
same,TGI,OVCAR-8 ovarian,1.56 µM
same,TGI,PC-3 prostate,1.55 µM
same,TGI,RPMI-8226 leukemia,5.7 µM
same,TGI,SF-268 CNS,2.48 µM
same,TGI,SF-295 CNS,1.43 µM
same,TGI,SF-539 CNS,0.421 µM
same,TGI,SK-MEL-2 melanoma,2.16 µM
same,TGI,SK-MEL-28 melanoma,3.61 µM
same,TGI,SK-MEL-5 melanoma,1.06 µM
same,TGI,SK-OV-3 ovarian,2.1 µM
same,TGI,SN12C renal,1.32 µM
same,TGI,SNB-19 CNS,2.19 µM
same,TGI,SNB-75 CNS,2.97 µM
same,TGI,SW-620 colon,1.45 µM
same,TGI,T-47D breast,3.32 µM
same,TGI,TK-10 renal,2.14 µM
same,TGI,U251 CNS,1.45 µM
same,TGI,UACC-257 melanoma,1.88 µM
same,TGI,UACC-62 melanoma,1.98 µM
same,TGI,UO-31 renal,1.46 µM
